Consider 1 substance from patent US9101671B2, “Methods and compositions related to clot binding compounds” (Sanford-Burnham Medical Research Institute, priority 2007, dated 2015).

Where no end group is shown, it is not given here. fluorescent dye = not defined here

The subject of one series is human plasma clots. The experiment in a line: Nanoparticle binding to human plasma clots in vitro. How it is done: (§1) Phage binding to clotted plasma proteins was determined as described (Pilch 2006). CREKA-SPIO and control SPIO were added to freshly formed plasma clots in the presence or absence of free CREKA peptide. After 10 min incubation, the clots were washed 4 times in PBS, transferred to a new tube and digested in 100 μl concentrated nitric acid. The digested material was diluted in 2 ml distilled water and the iron concentration was determined using inductively coupled plasma-optical emission spectroscopy (ICP-OES, PerkinElmer, Norwalk, Conn.).

The next series deals with B16F1 melanomas. Put plainly: CREKA peptide homing to B16F1 melanomas in fibrinogen null mice and normal littermates. The settings on record: intravenous injection. Type of series: in vivo. Here is the method:
Fluorescein-conjugated CREKA peptide (200 μg per mouse) was injected into mice bearing syngeneic B16 melanoma tumors. Representative microscopic fields are shown to illustrate homing of fluorescein-CREKA to fibrin-like structures in tumors in wild type mice (A, arrow) and lack of homing in fibrinogen null mice (B). […] (D) Dextran-coated iron oxide nanoparticles conjugated with fluorescein-CREKA bind to clotted plasma proteins, and the binding is inhibited by free CREKA peptide. […] Magnification: A-B, 200×; D, 600×.
Tumors contain a meshwork of clotted plasma proteins in the tumor stroma and the walls of vessels, but no such meshwork is detectable in normal tissues (Dvorak 1985; Abe 1999; Pilch 2006). The mesh-like pattern produced by the CREKA peptide in tumors prompted the study of whether clotted plasma proteins can be the target of this peptide. The peptide was tested in fibrinogen knockout mice, which lack the fibrin meshwork in their tumors. […] Its structure makes it an attractive peptide to use in nanoparticle targeting because, unlike other clot-binding peptides, which are cyclic 10 amino-acid peptides (Pilch 2006), CREKA is linear and contains only 5 amino acids. Moreover, the sulfhydryl group of the single cysteine residue is not required to provide binding activity and can be used to couple the peptide to other moieties. […]

Series [1] has as its system MDA-MB-435 human breast cancer xenografts. Put plainly: Tumor homing of intravenously injected fluorescent CREKA peptide in MDA-MB-435 xenograft mice. Type of series: in vivo. Here is the method: (§2) (A). Balb/c nude mice bearing MDA-MB-435 human breast cancer xenograft tumors or transgenic MMTV PyMT mice with breast tumors were intravenously injected with 0.1 mg of fluorescein-CREKA. The animals were sacrificed by perfusion 24 hours post-injection and tissue sections were examined by fluorescent microscopy. Right panel, control organs of MDA-MB 435 tumor mice. Magnification 200×. (B). Whole animal imaging of MDA-MB-435 tumor mouse injected 6 hours earlier with 30 μg of Alexa Fluor 647-labeled CREKA. Maestro imaging system (Cambridge Research Inc., Woburn, Mass.) was used to acquire and process the image. The arrow points to the tumor and the arrowhead to the urinary bladder.
A tumor-homing peptide was used to construct targeted nanoparticles. […] The most frequently represented peptide sequence in the selected phage preparation was CREKA (cys-arg-glu-lys-ala; SEQ ID NO:1). The CREKA peptide was synthesized with a fluorescent dye attached to the N-terminus and the in vivo distribution of the peptide was studied in tumor-bearing mice. […] The peptide formed a distinct meshwork in the tumor stroma (FIG. 5), and it also highlighted the blood vessels in the tumors.
In vivo screening of a peptide library with the general structure of CX7C (SEQ ID NO: 4), where C is cysteine and X is any amino acid, was carried out as described (Oh 2004) using 65- to 75-day-old transgenic MMTV PyMT mice (Hutchinson 2000). These mice express the polyoma virus middle T antigen (MT) under the transcriptional control of the mouse mammary tumor virus (MMTV), leading to the induction of multi-focal mammary tumors in 100% of carriers. MDA-MB-435 tumors in nude mice and peptide synthesis have been described (Laakkonen 2002; Laakkonen 2004). B16F1 murine melanoma tumors were grown in fibrinogen null mice (Suh 1995) and their normal littermates and used when they reached 0.5-1 cm in size (Pilch 2006).

A further series has as its system PyMT tumors. Put plainly: Tumor homing of intravenously injected fluorescent CREKA peptide in MMTV-PyMT mice. Type of series: in vivo. The settings on record: intravenous injection; minutes to hours after the injection; fluorescent dye at N-terminus. How it is done: as §2
A tumor-homing peptide was used to construct targeted nanoparticles. […] The most frequently represented peptide sequence in the selected phage preparation was CREKA (cys-arg-glu-lys-ala; SEQ ID NO:1). The CREKA peptide was synthesized with a fluorescent dye attached to the N-terminus and the in vivo distribution of the peptide was studied in tumor-bearing mice. […] The peptide formed a distinct meshwork in the tumor stroma (FIG. 5), and it also highlighted the blood vessels in the tumors. […]

In the next series the test system is mouse plasma clots. The experiment in a line: Nanoparticle binding to mouse plasma clots in vitro. How it is done:
as §1

“cys-arg-glu-lys-ala ({fluorescent dye}-CREKA; reading uncertain; also: dye not identified, printed as cys-arg-glu-lys-ala) [CREKA peptide, studied in vivo with a fluorescent dye attached to the N-terminus]”: the “effect of free peptide on CREKA-SPIO binding to plasma clots” value in the series on human plasma clots and in the series with mouse plasma clots was “inhibited” each time. For the same substance, the figures for the “peptide accumulation in tumors” value with B16F1 melanomas (fibrinogen null mice) and with B16F1 melanomas (normal littermates of the null mice) were “failed to accumulate” and “formed a brightly fluorescent meshwork”, respectively. The “peptide detection in tumors” value in series [1] (intravenous injection, minutes to hours after the injection, fluorescent dye at N-terminus) is on record as “readily detectable”; in the series with PyMT tumors, “readily detectable”. Further, the “peptide detection in normal tissues” value in series [1] (intravenous injection, tumor-bearing mice) is on record as “essentially undetectable”. The “whole body imaging, peptide accumulation” value in series [1] (peptide labeled with Alexa 647, 6 hours after injection of 30 μg) is “peptide accumulation in the breast cancer xenografts, and in the bladder”.
